Patent US20240368232A1, “ANTIVIRAL LARAZOTIDE DERIVATIVES” (priority 2021, published 2024)
Values joined by “and” are separate entries in the source; they are usually repeats but may differ in a detail not shown here. Identical values can stand only once. Like-named read-outs stand apart in the source and are kept apart here. Square brackets hold non-standard residues; d marks the D form. Peptide text beside a SMILES is read from it. * marks the point of attachment. ξ: configuration not given here. ξTic = O=C(O)C1Cc2ccccc2CN1; ξY = NC(Cc1ccc(O)cc1)C(=O)O; Heptanoyl = CCCCCCC(=O)*; Boc = CC(C)(C)OC(=O)*

How the values were obtained:
TK^− VZV strain 07-1 [1] = test: microbe, parasite or virus in culture; settings: Human alphaherpesvirus 3, HEL, read-out: Antiviral activity EC50 TK^− VZV strain 07-1., VZV in HEL cells; plaque formation reduced by 50%; 20 PFU
TK^+ VZV strain OKA [2] = test: microbe, parasite or virus in culture; settings: Human alphaherpesvirus 3, HEL, read-out: Antiviral activity EC50 TK^+ VZV strain OKA, VZV in HEL cells; plaque formation reduced by 50%; 20 PFU
TK^+ VZV strain OKA [3] = settings: read-out: Antiviral activity EC50 TK^+ VZV strain OKA; VZV in HEL cells; plaque formation reduced by 50%; 20 PFU
[4] = tested on: human embryonic lung (HEL) cells; test: Cytotoxicity, cell morphology (MCC), HEL cells; type: cell-based
TK^− VZV strain 07-1 [5] = settings: read-out: Antiviral activity EC50 TK^− VZV strain 07-1.; VZV in HEL cells; plaque formation reduced by 50%; 20 PFU
[6] = target: T1, SARS-COV-2 M^pro (3264-3569aa) (Severe acute respiratory syndrome coronavirus 2, UniProt P0DTD1); test: FRET assay for TRIP on SARS-COV-2 main protease; type: biochemical
T1 construct: SARS-COV-2 M^pro (3264-3569aa); purchased Proteros WTH_20_1

M^pro enzyme = M^pro enzyme (Severe acute respiratory syndrome coronavirus 2, UniProt P0DTD1); settings: MM-GBSA, literature Di Micco et al. 2021; cited from earlier work
in vitro = settings: African green monkey
[7] = tested on: cytomegalovirus (HCMV) AD-169 strain; settings: read-out: Antiviral activity EC50 AD-169 strain; HCMV in HEL cells; plaque formation reduced by 50%; 100 PFU
[8] = tested on: cytomegalovirus (HCMV) Davis strain; settings: read-out: Antiviral activity EC50 Davis strain; HCMV in HEL cells; plaque formation reduced by 50%; 100 PFU
[9] = tested on: SARS-COV-2 UK (NVDBB) strain; test: microbe, parasite or virus in culture; settings: Severe acute respiratory syndrome coronavirus 2, Vero, read-out: Antiviral activity EC50 UK (NVDBB) strain Vero cells
[10] = tested on: SARS-COV-2 1074 # 2 strain
[11] = tested on: SARS-COV-2 1074 # 2 strain; test: microbe, parasite or virus in culture; settings: Severe acute respiratory syndrome coronavirus 2, Vero, read-out: Antiviral activity EC50 1074 # 2 strain Vero cells
Vero cells [12] = tested on: Vero cells
[13] = tested on: cytomegalovirus (HCMV) AD-169 strain; test: microbe, parasite or virus in culture; settings: Human betaherpesvirus 5, AD169, HEL, read-out: Antiviral activity EC50 AD-169 strain, HCMV in HEL cells; plaque formation reduced by 50%; 100 PFU
Vero cells [14] = type: cell-based
[15] = tested on: SARS-COV-2 UK (NVDBB) strain

Row | Molecule | EC50 (TK^+ VZV strain OKA [3]) [µM] | Cytotoxicity Cell morphology (MCC) ([4]; Table 4 (VZV experiment)) [μM] | EC50 (TK^− VZV strain 07-1 [5]) [µM] | IC50 [6] [µM] | Cytotoxicity Cell morphology (MCC) ([4]; Table 3 (HCMV experiment)) [μM] | EC50 [7] [µM] | further results
1 | O=c1[nH]c(=O)n([C@H]2C[C@H](O)[C@@H](CO)O2)cc1/C=C/Br [Brivudine (BVDU), Brivudine, reference compound] | 0.17 | >300.3 | 4.53 |  |  |  | EC50 (TK^− VZV strain 07-1 [1]): 5.89 µM; EC50 (TK^+ VZV strain OKA [2]): 0.27 µM
2 | CC(=O)NCC(=O)N[C@@H](Cc1ccccc1)C(=O)N[C@H](Cc1c[nH]cn1)C(=O)NCC=O [TRIP 42] (Ac-GF[dH]G-aldehyde) |  |  |  | > 425 |  |  | 
3 | O=CCNC(=O)[C@@H](Cc1c[nH]cn1)NC(=O)[C@H](Cc1c[nH]cn1)NC(=O)C1Cc2ccccc2CN1 (stereo partly drawn) [TRIP 41] (H-[ξTic]H[dH]G-aldehyde) |  |  |  | > 425 |  |  | 
4 | CC(C)C[C@H](C=O)NC(=O)[C@H](Cc1ccccc1)NC(=O)C1Cc2ccccc2CN1 (stereo partly drawn) [TRIP 3] (H-[ξTic]-Phe-[dL]-aldehyde) |  |  |  | > 425 |  |  | 
5 | larazotide acetate [AT1001 acetate] |  |  |  |  |  |  | docking in the catalytic domain of the M^pro enzyme (M^pro enzyme): docks extremely well
6 | CCCCCCC(=O)NCC(=O)N[C@H](Cc1ccccc1)C(=O)N[C@H](C=O)Cc1c[nH]cn1 [TRIP 44] (Heptanoyl-Gly-[dF]-His-aldehyde) | > 100 | >100 | > 100 |  | 100 | > 20 | CC50 (in vitro): > 100 µM; EC50 [8]: > 100 µM
7 | CCC(CC)COC(=O)[C@H](C)N[P@](=O)(OC[C@H]1O[C@@](C#N)(c2ccc3c(N)ncnn23)[C@H](O)[C@@H]1O)Oc1ccccc1 [Remdesivir] |  |  |  |  |  |  | EC50 [9]: 0.19 µM; EC50 ([10]; read-out: Antiviral activity EC50 1074 # 2 strain Vero cells): 1.17 µM; CC50 (in vitro; Cytotoxicity Cell growth (CC50)): > 80 µM; EC50 [11]: 1.01 µM; CC50 (Vero cells [12]; African green monkey): 59.1 µM
8 | CC(=O)NCC(=O)NC(Cc1ccc(O)cc1)C(=O)N[C@H](C=O)Cc1c[nH]cn1 (stereo partly drawn) [TRIP 23] (Ac-Gly-[ξY]-His-aldehyde) |  |  |  | 198 |  |  | 
9 | CC(C)(C)OC(=O)NCC(=O)N[C@H](Cc1ccccc1)C(=O)N[C@H](C=O)Cc1c[nH]cn1 [TRIP 43] (Boc-Gly-[dF]-His-aldehyde) | > 100 | >100 | > 100 |  | 100 | > 20 | CC50 (in vitro): > 100 µM; EC50 [8]: > 100 µM
10 | Nc1ccn(C[C@@H](CO)OCP(=O)(O)O)c(=O)n1 [Cidofovir (CDV), Cidofovir, reference compound] |  |  |  |  | 317 | 1.08 | EC50 [13]: 1.39 µM
11 | NC(=O)c1nc(F)cnc1O [T-705, reference compound] |  |  |  |  |  |  | Antiviral activity EC50 1074 # 2 strain Vero cells [10]: 76.15 µg/mL and 81.79 µg/mL; Cytotoxicity Cell morphology (MCC) (Vero cells [14]): >200 μg/ml; Antiviral activity EC50 UK (NVDBB) strain Vero cells [15]: 23.39 µg/mL; Cytotoxicity Cell growth (CC50) (Vero cells [12]): >200 µg/mL
12 | CC(=O)NCC(=O)N[C@H](Cc1ccccc1)C(=O)N[C@H](C=O)Cc1c[nH]cn1 [TRIP 5] (Ac-Gly-[dF]-His-aldehyde) | > 100 | >100 | > 100 | 2.51 ± 0.24 | 100 | > 20 | CC50 (in vitro): > 100 µM; Kd [6]: 1.26 ± 0.12 µM; EC50 [8]: > 100 µM
